Results from patent publication US8343973B2, “Phenoxymethyl heterocyclic compounds” (EnVivo Pharmaceuticals, Inc., priority 2009, dated 2013).

Target: Human PDE10A1 (Homo sapiens, UniProt Q9Y233)
Test: hPDE10A1 enzyme inhibition ([3H]-cAMP hydrolysis, scintillation)
Type: biochemical
Settings: Human PDE10A1, [3H]-cAMP substrate; read-out: hPDE10A1 IC50 Band
Description: hPDE10A1 Enzyme Activity: 50 μl samples of serially diluted Human PDE10A1 enzyme were incubated with 50 μl of [^3H]-cAMP for 20 minutes (at 37° C.). Reactions were carried out in Greiner 96 deep well 1 ml master-block. The enzyme was diluted in 20 mM Tris HCl pH7.4 and [^3H]-cAMP was diluted in 10 mM MgCl2, 40 mM Tris.HCl pH 7.4. The reaction was terminated by denaturing the PDE enzyme (at 70° C.) after which [^3H]-5′-AMP was converted to [^3H]-adenosine by adding 25 μl snake venom nucleotidase and incubating for 10 minutes (at 37° C.). Adenosine, being neutral, was separated from charged cAMP or AMP by the addition of 200 μl Dowex resin. Samples were shaken for 20 minutes then centrifuged for 3 minutes at 2,500 r.p.m. 50 μl of supernatant was removed and added to 200 μl of MicroScint-20 in white plates (Greiner 96-well Optiplate) and shaken for 30 minutes before reading on Perkin Elmer TopCount Scintillation Counter.
hPDE10A1 Enzyme Inhibition: To check inhibition profile 11 μl of serially diluted inhibitor was added to 50 μl of [^3H]-cAMP and 50 ul of diluted Human PDE10A1 and assay was carried out as in the enzyme activity assay. Data was analysed using Prism software (GraphPad Inc).

Human PDE10A1, sequence (Q9Y233 1-779 isoform Q9Y233-1): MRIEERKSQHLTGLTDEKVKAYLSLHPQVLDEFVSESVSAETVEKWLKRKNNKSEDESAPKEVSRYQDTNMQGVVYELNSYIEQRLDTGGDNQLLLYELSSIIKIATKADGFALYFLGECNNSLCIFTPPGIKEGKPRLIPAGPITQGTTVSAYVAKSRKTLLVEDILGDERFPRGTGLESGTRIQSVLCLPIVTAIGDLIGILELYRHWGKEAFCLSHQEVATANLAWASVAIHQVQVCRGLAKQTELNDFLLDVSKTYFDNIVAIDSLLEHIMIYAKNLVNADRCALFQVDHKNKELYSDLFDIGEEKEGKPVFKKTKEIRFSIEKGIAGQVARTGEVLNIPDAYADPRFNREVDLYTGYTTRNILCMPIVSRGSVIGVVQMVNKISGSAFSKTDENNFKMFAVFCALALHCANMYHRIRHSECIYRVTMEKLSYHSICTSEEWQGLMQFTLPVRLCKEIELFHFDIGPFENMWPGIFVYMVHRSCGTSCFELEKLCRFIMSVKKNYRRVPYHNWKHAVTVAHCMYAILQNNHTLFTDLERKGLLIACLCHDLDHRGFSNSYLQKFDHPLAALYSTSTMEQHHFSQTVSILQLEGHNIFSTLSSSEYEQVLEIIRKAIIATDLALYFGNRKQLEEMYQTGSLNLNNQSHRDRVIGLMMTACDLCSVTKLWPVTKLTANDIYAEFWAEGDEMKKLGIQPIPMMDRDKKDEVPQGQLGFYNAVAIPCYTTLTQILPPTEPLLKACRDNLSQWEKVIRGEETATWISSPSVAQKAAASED

Row | IC50 [nM] | Compound
1 | 10 to 50 | COc1ccc(C2=C(c3ccc(OCc4cn5nc(Cl)ccc5n4)cc3)C(=O)C(C)(C)O2)cc1 [4-(4-((6-chloroimidazo[1,2-b]pyridazin-2-yl)methoxy)phenyl)-5-(4-methoxyphenyl)-2,2-dimethylfuran-3(2H)-one]
2 | ≤ 10 | COc1ccc(C2=C(c3ccc(OCc4cn5ccccc5n4)cc3)C(=O)C(C)(C)O2)cc1 [4-(4-(imidazo[1,2-a]pyridin-2-ylmethoxy)phenyl)-5-(4-methoxyphenyl)-2,2-dimethylfuran-3(2H)-one]
3 | ≤ 10 | COc1ccc(C2=C(c3ccc(OCc4cn5ncccc5n4)cc3)C(=O)C(C)(C)O2)cc1 [4-(4-(imidazo[1,2-b]pyridazin-2-ylmethoxy)phenyl)-5-(4-methoxyphenyl)-2,2-dimethylfuran-3(2H)-one]
4 | 10 to 50 | COc1ccc(C2=C(c3ccc(OCc4ccc5nccn5n4)cc3)C(=O)C(C)(C)O2)cc1 [4-(4-(imidazo[1,2-b]pyridazin-6-ylmethoxy)phenyl)-5-(4-methoxyphenyl)-2,2-dimethylfuran-3(2H)-one]
5 | ≤ 10 | COc1ccc(C2=C(c3ccc(OCc4cn5c(C)cccc5n4)cc3)C(=O)C(C)(C)O2)cc1 [5-(4-Methoxyphenyl)-2,2-dimethyl-4-(4-((5-methylimidazo[1,2-a]pyridin-2-yl)methoxy)phenyl)furan-3(2H)-one]

The next lines start with the compound.

Row | Compound | IC50 [nM]
6 | CC1(C)OC(c2ccc(C#N)cc2)=C(c2ccc(OCc3cn4ccccc4n3)cc2)C1=O [4-(3-(4-(imidazo[1,2-a]pyridin-2-ylmethoxy)phenyl)-5,5-dimethyl-4-oxo-4,5-dihydrofuran-2-yl)benzonitrile] | ≤ 10
7 | COc1ccc(C2=C(c3ccc(OCc4ncc(C)cc4C)cc3)C(=O)C(C)(C)O2)cc1 [4-(4-((3,5-dimethylpyridin-2-yl)methoxy)phenyl)-5-(4-methoxyphenyl)-2,2-dimethylfuran-3(2H)-one] | ≤ 10
8 | COc1ccc(C2=C(c3ccc(OCc4nc5ccccn5c4Cl)cc3)C(=O)C(C)(C)O2)cc1 [4-(4-((3-chloroimidazo[1,2-a]pyridin-2-yl)methoxy)phenyl)-5-(4-methoxyphenyl)-2,2-dimethylfuran-3(2H)-one] | ≤ 10
9 | COc1ccc(C2=C(c3ccc(OCc4cn5cc(Cl)ccc5n4)cc3)C(=O)C(C)(C)O2)cc1 [4-(4-((6-Chloroimidazo[1,2-a]pyridin-2-yl)methoxy)phenyl)-5-(4-methoxyphenyl)-2,2-dimethylfuran-3(2H)-one] | ≤ 10
10 | Cc1ccc(COc2ccc(C3=C(c4ccc(C#N)cc4)OC(C)(C)C3=O)cc2)nc1 [4-(5,5-dimethyl-3-(4-((5-methylpyridin-2-yl)methoxy)phenyl)-4-oxo-4,5-dihydrofuran-2-yl)benzonitrile] | ≤ 10
11 | COc1ccc(C2=C(c3ccc(OCc4nc5ccccn5c4C)cc3)C(=O)C(C)(C)O2)cc1 [5-(4-Methoxyphenyl)-2,2-dimethyl-4-(4-((3-methylimidazo[1,2-a]pyridin-2-yl)methoxy)phenyl)furan-3(2H)-one] | 10 to 50
12 | COc1ccc(C2=C(c3ccc(OCc4ccc(C)cn4)cc3)C(=O)C(C)(C)O2)cc1 [5-(4-methoxyphenyl)-2,2-dimethyl-4-(4-((5-methylpyridin-2-yl)methoxy)phenyl)furan-3(2H)-one] | ≤ 10

Tested on: not given
Test: not given
Settings: rats; cited from earlier work

Row | Compound | apomorphine induced stereotypes | haloperidol induced catalepsy | rat brain dopamine levels
13 | COc1ccc(Cc2nccc3cc(OC)c(OC)cc23)cc1OC [papaverine] | reduces | increases | reduces
